According to article PMC6257627, “Target Validation and Identification of Novel Boronate Inhibitors of the Plasmodium falciparum Proteasome” (Journal of Medicinal Chemistry, 2018):
*: point of attachment. AMC = Cc1cc(=O)oc2cc(N*)ccc12

How the values were obtained:
[1] = biological target: Plasmodium falciparum 20S proteasome β1 (Plasmodium falciparum, UniProt Q8I0U7+Q8I6T3); assay type: biochemical
[2] = biological target: Plasmodium falciparum 20S proteasome β2 (Plasmodium falciparum, UniProt Q8I261+Q8I6T3); assay type: biochemical
[3] = biological target: Plasmodium falciparum 20S proteasome β5 (Plasmodium falciparum, UniProt A0A5K1K7U1+Q8IJT1); assay: Pf20S proteasome fluorogenic assay, chymotrypsin-like activity (Ac-WLA-AMC); assay type: biochemical; conditions: 0.8 μM carfilzomib
[4] = system: P. falciparum 3D7 parasites; assay: Standard 72 h antiplasmodial viability assay, 3D7; assay type: cell-based, Plasmodium falciparum; conditions: for Pf3D7 LD50 (72 h): sorbitol-treated ring stage, viability in next cycle (~72 h), mean ± SEM, n=3; for Pf3D7 LD50 (72-h): supplement CSV
Experimental: P. falciparum parasites used in this study were propagated in O+ human erythrocytes (Australian Red Cross Blood Service) in RPMI-1640, supplemented with GlutaMAX, 25 mM HEPES (Thermo Fisher Scientific), 5% (v/v) human serum (Australian Red Cross Blood Service), 0.25% (w/v) AlbuMAX II (Thermo Fisher Scientific), 10 μM D-glucose, 22 μg/mL gentamycin (Sigma-Aldrich), and 0.5 mM hypoxanthine (Sigma-Aldrich) and incubated at 37 °C in an atmosphere of 1% O2, 5% CO2, and 94% N2. Cultures were monitored by Giemsa staining of methanol-fixed blood smears. Culture medium was replaced at least every 48 h, and parasitemia was maintained below 10% to ensure health of cultures. The GFP-DD reporter strain was kindly provided by Dr. Paul Gilson, Dr. Brendan Crabb, and Dr. Mauro F. Azevedo (Burnet Institute).
(§1) For standard assays of antiplasmodial activity, sorbitol-treated ring stage parasites were incubated with the drugs for 72 h and viability was assessed in the second cycle.[12] Drug pulse assays were performed as described previously.[47] For short pulse assays, tightly synchronized early ring stage parasites (1–3 h after invasion) at 0.2% hematocrit and 1–2% parasitemia were subjected to 3 h drug pulse at 37 °C and returned to culture until parasites reached trophozoite stage of the following cycle. Cells were then stained with 2 μM Syto-61 (Thermo Fisher Scientific), and their fluorescence was measured by flow cytometry (FACSCanto II cytometer; Becton Dickinson). Data were gated and analyzed using FCS Express software (version 3) to determine parasitemia of each sample. Viability represents the parasitemia normalized to untreated and “kill treated” controls, where “kill treated” refers to samples treated with 2 μM DHA for 48–72 h. Interactions between DHA and MPI-1 or MPI-4 against the K13 mutant (DHA resistant) Cam3.II P. falciparum strain, exposed to a 3 h pulsed treatment, were determined at 4 h after invasion as described previously.[12]

[5] = system: HCT116 cells; assay: HCT116 cellular toxicity (CellTiter-Glo, 72 h); assay type: cell-based, human; conditions: for HCT116 LD50 (72 h): 72 h incubation, mean ± SEM or half range, 2–4 experiments; for HCT116 LD50 (72-h): supplement CSV
Experimental: HCT-116 and HepG2 cells were obtained from the American Type Culture Collection and maintained as recommended by the supplier. Cells were cultured in the ATCC-formulated McCoy’s 5A medium or DMEM (Life Technologies, CA), supplemented with fetal bovine serum to a final concentration of 9–10%, and incubated at 37 °C in an atmosphere of 95% air and 5% CO2. Cellular toxicity assays were performed using Promega’s CellTiter-Glo assay system. Varying concentrations of the test compounds in 5% DMSO/95% PBS were dispensed into a 384-well plate and cells added to each well. The plates were incubated at 37 °C for 72 h, and the CellTiter-Glo assay to assess cell viability was performed as described by the manufacturer (Promega).
For human cell line activity assays, cellular toxicity assays were performed as described previously.[23],[48]

[6] = system: HepG2 cells; assay: HepG2 cellular toxicity (CellTiter-Glo, 72 h); assay type: cell-based, human; conditions: for HepG2 LD50 (72 h): 72 h incubation, mean ± SEM or half range, 2–4 experiments; for HepG2 LD50( 72-h): supplement CSV
[7] = system: P. falciparum Cam3.II^R539T; assay: 3 h pulsed exposure viability assay, K13 mutant early rings; assay type: cell-based, Plasmodium falciparum; conditions: for Cam3.II^R539T LD50 (3 h): early ring (1–3 h p.i.), 3 h pulse, viability in next cycle, mean ± SEM, n=3; for Cam3.IIR539T LD50 (3-h): supplement CSV
Experimental: as §1

[8] = system: P. falciparum Cam3.II^Rev; assay: 3 h pulsed exposure viability assay, K13 wild-type revertant early rings; assay type: cell-based, Plasmodium falciparum; conditions: for Cam3.II^Rev LD50 (3 h): early ring (1–3 h p.i.), 3 h pulse, viability in next cycle, mean ± SEM, n=3; for Cam3.IIRev LD50 (3-h): supplement CSV
Experimental: as §1

[9] = system: bortezomib-resistant 3D7 B1 line (clone B1a); assay: 72 h viability assay, bortezomib-resistant B1 line / clone B1a; assay type: cell-based, Plasmodium falciparum; conditions: for cross-resistance of the bortezomib-resistant parasite line (B1): growth inhibition, versus 3D7; for bortezomib-resistant 3D7 B1 line LD50 (72 h): ring stage, mean ± SEM, n=3; for Bortezomib-resistant3D7 B1 LD50 (72-h): supplement CSV
Experimental: as §1
Prior to selection, an aliquot of the parental line was stocked as a reference for subsequent whole genome sequencing analysis. Several independent clones of P. falciparum 3D7 parasite line were cultured in Petri dishes exposed to increasing drug pressure for ∼30 weeks. Parasites were cloned by limiting dilution. For parasite extraction and genomic DNA isolation, cultures were scaled up to at least 4–5% parasitaemia, lysed in saponin, and genomic DNA was isolated using ISOLATE II Genomic DNA kit (Bioline). DNA libraries for each gDNA sample were prepared for sequencing using the Nextera XT kit as described previously.[50] Libraries were clustered and run on an Illumina HiSeq 2500 using the RapidRun mode, sequencing 100 base pairs in depth on either end. Paired-end reads were either aligned to the P. falciparum 3D7 reference genome (PlasmoDB version 13.0).

[10] = system: Pf20S proteasome β1, β2, β5 subunits; assay type: biochemical, P. falciparum; conditions: compounds 1 h, purified Pf20S or infected erythrocytes
[11] = system: human constitutive proteasome and immunoproteasome catalytic subunits; assay: BMV037 active site probe competition, purified human 20S proteasomes; assay type: biochemical; conditions: for subunit specificity by BMV037 probe labeling, human constitutive proteasome and immunoproteasome: compounds 1 h, probe 2 h
[12] = system: Pf20S proteasome subunits of bortezomib-resistant parasites; assay: BMV037 active site probe competition, bortezomib-resistant parasites; assay type: biochemical, P. falciparum; conditions: compounds 1 h
Experimental: Figure 3 Active site probe analysis of the proteasome subunit specificity of the selected compounds in 3D7 parent and bortezomib-resistant parasites. Purified Pf20S proteasome from wild-type 3D7 (A) and bortezomib-resistant (C) parasites or wild-type 3D7 (B) and bortezomib-resistant (D) trophozoite-infected erythrocytes were treated with compounds for 1 h, and activity-based probe (BMV037) labeling was performed (postlysis for the trophozoite samples). Fluorescent gel scans reveal subunits that remain active after treatment.
P. falciparum culture, purified Pf20S proteasomes, human constitutive proteasomes, or immunoproteasomes (Boston Biochem) were incubated with test compounds at 37 °C for 1 h. Treated parasite lysates (10 μg), Pf20S proteasomes (80 nM), human constitutive proteasomes (20 nM), or immuno-20S proteasomes (20 nM) were labeled with BMV037 (10 μM) at 37 °C for 2 h. Samples were mixed with SDS loading buffer and heated at 95 °C for 5 min. Samples for P. falciparum and human immuno-20S were run on 4–12% Bis-Tris acrylamide gels using MES SDS running buffer (Thermo Fisher Scientific). Human constitutive 20S samples were run on a 10% Bis-Tris acrylamide gel using MOPS SDS running buffer (Thermo Fisher Scientific). Gels were imaged at the Cy5 channel on a Gel Doc XR+ Documentation System (Bio-Rad) or an Amersham Typhoon Trio imager (GE Healthcare Life Sciences).

[13] = system: Pf20S proteasome; assay: Validation of resynthesized Ac-P3-P2-P1-AMC substrates, Pf20S; assay type: biochemical, P. falciparum; conditions: 10 μM
Experimental: (§2) AMC (10 μM) was used as the fluorescence standard. Pf20S reaction condition: Pf20S (1 nM), human PA28 αβ (24 nM), in 50 mM Tris, pH 7.5, 5 mM MgCl2, 1 mM DTT, 0.01% BSA. Human 20S reaction condition: 0.25 nM human constitutive proteasome or immunoproteasome (Boston Biochem), PA28 αβ (24 nM) in 20 mM HEPES, pH 7.4, 0.5 mM EDTA, 0.01% BSA. The assays were read in kinetic mode at 37 °C using a BMG PHERAstar plate reader, and the rate data were normalized to activity obtained using the Ac-WLR-AMC substrate (=1000 units). For validation of substrate preferences, relevant Ac-P3-P2-P1-AMC substrates were resynthesized by CPC Scientific, CA, USA, and assayed for activity against human and P. falciparum 20S proteasomes in 96-well plates (80 μL reaction, 10 μM substrate) under the same reaction condition.

[14] = biological target: T1, human proteasome β2 (Homo sapiens, UniProt P49720+Q99436); assay: Validation of resynthesized Ac-P3-P2-P1-AMC substrates, human proteasome; assay type: biochemical; conditions: 10 μM
T1 construct: purchased Boston Biochem
Experimental: as §2

Plasmodium falciparum 20S proteasome β5, sequence (Q9UL46 2-239): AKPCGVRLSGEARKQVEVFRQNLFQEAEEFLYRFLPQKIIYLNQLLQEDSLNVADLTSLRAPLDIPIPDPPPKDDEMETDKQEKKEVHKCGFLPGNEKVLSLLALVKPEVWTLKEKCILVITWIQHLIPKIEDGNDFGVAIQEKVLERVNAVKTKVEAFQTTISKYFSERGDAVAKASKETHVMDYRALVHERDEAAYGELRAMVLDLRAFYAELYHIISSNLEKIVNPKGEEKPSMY
Plasmodium falciparum 20S proteasome β5, sequence (A0A5K1K7U1 entry or part of it): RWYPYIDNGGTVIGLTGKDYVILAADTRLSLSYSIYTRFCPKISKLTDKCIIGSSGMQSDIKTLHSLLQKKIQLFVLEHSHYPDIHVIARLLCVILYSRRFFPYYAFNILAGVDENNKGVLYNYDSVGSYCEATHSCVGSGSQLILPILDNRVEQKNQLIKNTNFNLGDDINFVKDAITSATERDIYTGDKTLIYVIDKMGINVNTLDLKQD
Plasmodium falciparum 20S proteasome β5, sequence (Q06323 whole entry, further chain): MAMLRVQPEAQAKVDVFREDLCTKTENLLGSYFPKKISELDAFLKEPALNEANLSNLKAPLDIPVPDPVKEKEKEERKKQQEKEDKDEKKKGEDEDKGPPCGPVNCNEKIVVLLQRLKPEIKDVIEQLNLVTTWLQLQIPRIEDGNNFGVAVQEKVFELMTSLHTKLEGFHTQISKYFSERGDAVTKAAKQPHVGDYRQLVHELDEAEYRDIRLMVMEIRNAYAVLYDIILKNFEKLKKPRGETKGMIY
Plasmodium falciparum 20S proteasome β5, sequence (Q8IJT1 entry or part of it): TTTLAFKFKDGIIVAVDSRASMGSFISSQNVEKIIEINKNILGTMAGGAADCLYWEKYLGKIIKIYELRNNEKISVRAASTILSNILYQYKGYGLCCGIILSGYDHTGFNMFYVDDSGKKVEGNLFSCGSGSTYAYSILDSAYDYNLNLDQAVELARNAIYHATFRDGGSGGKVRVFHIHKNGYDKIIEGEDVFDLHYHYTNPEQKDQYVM
Plasmodium falciparum 20S proteasome β1, sequence (Q9UL46 2-239): as the sequence (Q9UL46 2-239) above
Plasmodium falciparum 20S proteasome β1, sequence (Q8I0U7 entry or part of it): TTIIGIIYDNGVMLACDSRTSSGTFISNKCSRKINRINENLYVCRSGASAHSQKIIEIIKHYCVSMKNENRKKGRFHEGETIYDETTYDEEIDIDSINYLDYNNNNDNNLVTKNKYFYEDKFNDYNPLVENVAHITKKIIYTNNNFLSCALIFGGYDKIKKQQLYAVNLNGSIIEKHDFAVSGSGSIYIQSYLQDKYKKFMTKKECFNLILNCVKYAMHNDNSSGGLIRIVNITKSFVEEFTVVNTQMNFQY
Plasmodium falciparum 20S proteasome β1, sequence (Q8I6T3 entry or part of it): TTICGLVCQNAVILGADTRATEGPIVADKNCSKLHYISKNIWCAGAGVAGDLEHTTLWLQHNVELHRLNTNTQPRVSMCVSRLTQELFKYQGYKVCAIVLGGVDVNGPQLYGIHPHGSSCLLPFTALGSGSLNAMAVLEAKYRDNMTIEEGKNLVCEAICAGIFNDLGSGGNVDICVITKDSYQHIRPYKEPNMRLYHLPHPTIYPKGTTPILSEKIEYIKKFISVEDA
Plasmodium falciparum 20S proteasome β1, sequence (Q06323 whole entry, further chain): as the sequence (Q06323 whole entry, further chain) above
Plasmodium falciparum 20S proteasome β2, sequence (Q8I261 entry or part of it): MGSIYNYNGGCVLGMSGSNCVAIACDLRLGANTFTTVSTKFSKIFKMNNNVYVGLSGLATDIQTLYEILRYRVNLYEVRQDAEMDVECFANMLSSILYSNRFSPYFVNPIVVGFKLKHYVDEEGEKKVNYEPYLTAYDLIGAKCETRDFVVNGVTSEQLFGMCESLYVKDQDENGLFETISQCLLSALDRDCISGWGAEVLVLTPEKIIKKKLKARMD
Plasmodium falciparum 20S proteasome β2, sequence (Q06323 whole entry, further chain): as the sequence (Q06323 whole entry, further chain) above
Plasmodium falciparum 20S proteasome β2, sequence (Q8I6T3 entry or part of it): as the sequence (Q8I6T3 entry or part of it) above
Plasmodium falciparum 20S proteasome β2, sequence (Q9UL46 2-239, further chain): as the sequence (Q9UL46 2-239) above

Compound | Pf3D7 LD50 (72 h) [4] [µM] | Pf3D7 LD50 (72-h) [4] [µM] | HCT116 LD50 (72 h) [5] [µM] | HCT116 LD50 (72-h) [5] [µM] | HepG2 LD50 (72 h) [6] [µM] | HepG2 LD50( 72-h) [6] [µM] | Cam3.II^R539T LD50 (3 h) [7] [µM] | Cam3.IIR539T LD50 (3-h) [7] [µM] | Cam3.II^Rev LD50 (3 h) [8] [µM] | Cam3.IIRev LD50 (3-h) [8] [µM] | cross-resistance of the bortezomib-resistant parasite line (B1) [9] | bortezomib-resistant 3D7 B1 line LD50 (72 h) [9] [µM] | Bortezomib-resistant3D7 B1 LD50 (72-h) [9] [µM] | subunit specificity by BMV037 probe labeling, wild-type 3D7 [10] | subunit specificity by BMV037 probe labeling, human constitutive proteasome and immunoproteasome [11] | activity as substrate for Pf20S [13] | other results
CC(C)C[C@H](NC(=O)[C@H](CCc1ccccc1)NC(=O)CN1CCOCC1)C(=O)N[C@@H](Cc1ccccc1)C(=O)N[C@@H](CC(C)C)C(=O)[C@@]1(C)CO1 [carfilzomib] | – | – | – | – | – | – | – | – | – | – | – | – | – | – | – | – | inhibitory effect against Pf20S proteasome β1 activity [1]: only weak inhibitory effect; Pf20S β2 activity with carfilzomib [2]: completely abrogated; Pf20S β5 activity with carfilzomib [3]: completely abrogated
Cc1ccc(S(=O)(=O)N[C@@H](CC(=O)NCC(C)(C)C)C(=O)N[C@@H](Cc2ccccc2)C(=O)N[C@@H](CC(C)C)B(O)O)cc1 [MPI-3] | 0.065 ± 0.004 | 0.065 ± 0.004 | 0.027 ± 0.002 | 0.027 ± 0.002 | 0.26 ± 0.06 | 0.26 ± 0.06 | 0.19 ± 0.03 | 0.19 ± 0.03 | 0.21 ± 0.03 | 0.21 ± 0.03 | retained sensitivity | 0.054 ± 0.007 | 0.054 ± 0.007 | inhibited both β2 and β5 activities | preferential inhibition of the β1 and β5 subunits | – | IC50 ([4]; Plasmodium falciparum, 3D7, dose–response profiles, n = 3, read-out: 50% viability inhibitory concentration against 3D7 parasites): ~60 nM; BMV037 labeling of the human β1 and β5 subunits after treatment ([11]; 1 μM, especially constitutive proteasome): still evident; BMV037 competition profile in bortezomib-resistant parasites [12]: very similar in the bortezomib-resistant and wild-type parasites
CC(=O)N1CCC[C@H]1C(=O)N[C@@H](C)C(=O)N[C@@H](CC(C)C)B(O)O [MPI-2] | 0.16 ± 0.02 | 0.16 ± 0.02 | 1.3 ± 0.3 | 1.3 ± 0.3 | 2.4 ± 0.73 | 2.4 ± 0.73 | 1.5 ± 0.2 | 1.5 ± 0.2 | 1.8 ± 0.2 | 1.8 ± 0.2 | very strong cross-resistance | >2 | > 2 | preferentially inhibited binding of the probe to the β5 subunit | preferentially inhibited β1c and β5i | – | BMV037 labeling of the β5 active site in bortezomib-resistant parasites [12]: no longer able to prevent BMV037 labeling of the β5 active site
Ac-Lys-Trp-His-{AMC} | – | – | – | – | – | – | – | – | – | – | – | – | – | – | – | both active and selective for Pf20S | –
Ac-Trp-Trp-Lys-{AMC} | – | – | – | – | – | – | – | – | – | – | – | – | – | – | – | both active and selective for Pf20S | –
Ac-Arg-Gln-Arg-{AMC} | – | – | – | – | – | – | – | – | – | – | – | – | – | – | – | inactive | activity as substrate for human proteasome β2 [14]: good human proteasome β2 substrate
